Data reported in patent publication US20230218714A1, “DIAGNOSTICS AND USE OF QUORUM SENSING MOLECULES IN MUSCLE WASTING” (Universiteit Gent, priority 2019, published 2023).
Where “and” joins values, the source holds several entries; their conditions need not be identical. Equal entries are not always repeated. Entries after “also recorded” stand apart in the source; their conditions may differ. Where no end group is shown, it is not given here.

Assays:
[1] = test system: GDF15 production by C2C12 myotubes; assay: GDF15 production by C2C12 myotubes (sandwich ELISA), mitochondrial changes; format: cell-based, mouse; conditions: QSM 1 μM, C2C12 myotubes
Procedure: GDF15 levels were determined in the supernatants of C2C12 cells after QSM, placebo or positive control (oligomyin) treatment, using a sandwich ELISA (R&D Systems). A similar protocol as described for the IL-6 determination was used.
GDF15 is considered a useful biomarker for direct or indirect changes in mitochondrial function. Moreover, GDF15 is implicated in muscle wasting diseases like sarcopenia, chronic obstructive pulmonary disease cachexia and critical illness.

[2] = test system: atrogin, MuRF1, caspase 3 and atg7; assay: Protein degradation gene expression in C2C12 cells (RT-qPCR); format: cell-based, mouse
Procedure: C2C12 cells were seeded in 6-well (4×10^5 cells/well) or 12-well plates (1.5×10^5 cells/well). […] Thereafter, cells were scraped off from the well surface and resuspended in RLT lysis buffer (Qiagen). RNA was extracted from these lysed cells using RNeasy micro columns (Qiagen). Subsequently, RNA was reverse-transcribed using a mix of oligo-dT and random primers together with Quantiscript reverse transcriptase (Qiagen). DNAse steps were included in the protocol to remove possible DNA contamination. Real-time PCR was performed starting with 7.5 ng cDNA and both sense and antisense oligonucleotides in a final volume of 8 μl in a 384-well plate using the SensiMix SYBR green PCR master mix (Bioline). The following genes were analysed: atrogin, MuRF1, caspase 3 and atg7.
The second derivative method was used to determine the threshold or Cq values, with analysis of Ppia (Peptidylprolyl isomerase A), Rer (Rhodopsin enhancer region) and Hprt (Hypoxanthine-guanine phosphoribosyltransferase) mRNA to normalize gene expression (delta Cq method). […]
To screen the possible effects of 75 QSM on these 3 proteolysis systems, mRNA transcripts of the following representative genes were measured: atrogin and MuRF1 (UPS), caspase 3 (apoptosis system) and autophagy-related protein 7 (autophagy system). […]

C2C12 cells [3] = assay: Co-treatment of C2C12 cells with Q176 and ala-scan derivative, MTT response; format: cell-based, mouse; conditions: Q176 50 μM plus derivative 60 μM
Excerpt: (§1) Means±SEM, n=6. * P<0.05; ** P<0.01, *** P<0.001; paired Student's t test.

C2C12 cells [4] = assay: Co-treatment of C2C12 cells with QSP and ala-scan derivative, IL-6 response; format: cell-based, mouse; conditions: Q176 50 μM plus derivative 60 μM
Excerpt: as §1

C2C12 myotubes = assay: MTT reduction dose response in C2C12 myotubes; format: cell-based, mouse
Procedure: (§2) In a further set of experiments, using similar methods as described for the screening experiments, a number of QSPs were tested for a dose response relation in C2C12 cells.

human muscle cells [5] = assay: MTT reduction dose response in human muscle cells; format: cell-based; conditions: FIG. 9
Procedure: (§3) Differentiation medium consisted of high glucose Glutamax DMEM supplemented with penicillin (100 units/ml), streptomycin (100 μg/ml) and insulin (10 μg/mL).
(§4) Using similar methods as described for the C2C12 experiments, a number of QSPs were tested for a dose response relation in human muscle cells.

C. elegans = C. elegans swimming behaviour (muscle wasting/aging model); format: in vivo; set-up: key to Wave initiation rate / Asymmetry / Stretch / Curling / Travel speed / Brush stroke / Activity index: relative to placebo set to 1.0; conditions: for muscle wasting / aging muscle phenotype in C. elegans: QSP in medium (1 μM; QSP022 also 10 μM), swimming parameters; for Activity index / Asymmetry / Body wave number / Brush stroke / Curling / Stretch / Travel speed / Wave initiation rate: DMSO positive control
Excerpt: The C. elegans model is a well-established aging model: they diminish in locomotory vigor as they age, a phenomenon that is attributed to a physical deterioration of muscle and synapses. QSPs were introduced in the medium of living C. elegans. As comparisons, a placebo experiment was used as negative control, while DMSO was used as positive control.
Using automatic, objective imaging software, different swimming behaviour variables associated with this decrease in locomotory vigor or muscle wasting were investigated. Wave initiation rate, travel speed, brush stroke and activity index do decrease with muscle wasting, while body wave number, asymmetry, curling and stretch do increase with muscle wasting, as described in Restif et al., Plos Computational Biology, 2014.
More in particular, the results in these tables show Q184-associated changes in three swimming parameters in wild-type adults at day 3 (Table 9) and day 12 (Table 10) (n=120-170 from 3 independent trials for each condition). Data presented are means±s.e.m (placebo set to 1.0).

[6] = C. elegans medium, 1 μM during 12 days
C2C12 myoblasts = assay: MTT cell viability assay in C2C12 myoblasts
Procedure: The mouse myoblast C2C12 cell line (ATCC, CRL-1772) was cultured at 37° C. in a 5% CO2 humidified incubator in Dulbecco's modified Eagle medium (DMEM; Thermo Fisher Scientific). For C2C12 cell proliferation, the medium was supplemented with 10% fetal bovine serum (FBS; Thermo Fisher Scientific), 100 units/ml penicillin, and 100 μg/ml streptomycin (1% Pen/Strep; Thermo Fisher Scientific). The proliferation medium was renewed each 2-3 days and confluency was kept below 80%. For differentiation of the C2C12 myoblasts into myotubes, proliferation medium was replaced by differentiation medium when cells reached 80% confluency.
Viability of QSM was assessed using the 3-(4,5-dimethylthiazol-2-yl)-2,5-diphenyltetrazolium bromide (MTT) assay. Briefly, C2C12 myoblasts were seeded in a 96-well plate (3×10^4 cells/well). 24 hours post-seeding, the wells were treated with QSM (1 μM), placebo or positive control (DMSO 2%) and incubated for 24 hours at 37° C. Next, 20 μL of MTT reagent (5 mg/mL; Sigma-Aldrich) was added to each well and the plates were returned to the incubator for 2.5 hours. After incubation, supernatant was removed from the wells and 150 μL of DMSO was added to release and dissolve the formazan crystals. Absorbance was measured at 570 nm using a microplate reader (Thermo Fisher).
The MTT assay is a widely validated and accepted viability assay for screening experiments. In this assay, the reduction of MTT into formazan, catalysed by living cell enzymes, is used as a marker of cell viability. If QSM are cytotoxic or cytostatic towards C2C12 cells, a decrease in MTT reduction is expected (viability less than 100%), while an increased C2C12 proliferation caused by QSM will result in an increased MTT reduction (viability more than 100%).
In a further set of experiments, the dose response effect of QSPs Q22 and Q184 was assessed on MTT reduction of C2C12 myotubes (tables 7.4 and 7.5).

human muscle cells [7] = assay: IL-6 production dose response in human muscle cells; format: cell-based; conditions: FIG. 12
Procedure: as §3, §4

[8] = test system: IL-6 production by C2C12 myotubes; assay: IL-6 production by C2C12 myotubes (sandwich ELISA); format: cell-based, mouse; conditions: for Effect: inflammation (IL-6 production, hit direction): screening at 1 μM
Procedure: C2C12 myoblasts (2.5×10^4 cells/well) were seeded in 96-well plates and incubated until they reached 80% confluency, after which the proliferation medium was removed and replaced by differentiation medium. After 6 days of incubation with daily renewed differentiation medium, the cells were treated with 1 μM of QSM, placebo or positive control (LPS) for 24 hours. IL-6 levels were determined in the supernatants using a sandwich ELISA (eBioscience), using IL-6 capture antibody, blocking solution, samples and standards, IL-6 detection antibody, avidin-horseradish peroxidase and substrate solution which were added sequentially, with washing steps in between. After stopping the reaction with H2SO4 solution, the absorbance was measured at 450 nm and 570 nm (correction wavelength) using a microplate reader (ThermoLab Systems). Concentrations were determined using the standard curves generated with known concentrations of IL-6.
Several pro-inflammatory cytokines are elevated in sepsis, cancer, ageing and other catabolic diseases. They are thought to trigger muscle wasting (partly) through NF-kB pathways. […] In these screening experiments, the effects of QSM on myotube IL-6 production were assessed using a sandwich ELISA.
as §2

[9] = day 3, placebo set to 1.0, Q184 at 1 μM
[10] = day 12, placebo set to 1.0, Q184 at 1 μM

Substance: NEVPFEF [Q146]
- GDF15 secretion, effect relative to median [1]: 80%
- decrease in MuRF1 gene expression compared to placebo ([2]; QSM 1 μM, 24 h, individual screening): ~20% and 20%
- Effect: proteolysis (hit direction) ([2]; screening at 1 μM): ↓ proteolysis

Substance: GSLSTFFRLFNASFTQALGK (Synthetic Q176-A13)
- effect on Q176 mediated MTT effect (C2C12 cells [3]): inhibiting the Q176 mediated MTT effect
- effect on Q176 mediated MTT effect (C2C12 cells [3]; listed as QSP176-A13): clearly abolishes both effects
- effect on Q176 mediated IL-6 induction (C2C12 cells [4]): inhibiting the Q176 mediated IL-6 induction
- effect on Q176 mediated IL-6 induction (C2C12 cells [4]; listed as QSP176-A13): clearly abolishes both effects

Substance: SIFTLVA [Q184, SIFTLVA]
- IC10 (C2C12 myotubes; MTT, Tubes): 0.01 µM
- IC50 (C2C12 myotubes; MTT, Tubes): 0.06 µM
- Imax (relative MTT) (C2C12 myotubes; Tubes): 0.48 relative MTT
- Relative MTT (C2C12 myotubes; concentration 0.10 μM): 0.68
- Relative MTT (C2C12 myotubes; concentration 0.50 μM): 0.60
- Relative MTT (C2C12 myotubes; concentration 1.00 μM): 0.56
- Relative MTT (C2C12 myotubes; concentration 5.00 μM): 0.49
- Relative MTT (C2C12 myotubes; concentration 10 μM): 0.49
- dose response relation, MTT reduction (human muscle cells [5]): Typical curves were obtained
- muscle wasting / aging muscle phenotype in C. elegans (C. elegans): induced a muscle wasting phenotype; also recorded: muscle wasting effects; also recorded: inducing a muscle wasting phenotype
- muscle wasting / aging muscle phenotype in C. elegans (C. elegans; listed as QSP184): induces an aging muscle phenotype
- Activity index (C. elegans; [9]): 0.82
- Asymmetry (C. elegans; [9]): 1.10
- Body wave number (C. elegans; [9]): 1.01
- Brush stroke (C. elegans; [9]): 0.87
- Curling (C. elegans; [9]): 0.92
- Stretch (C. elegans; [9]): 1.03
- Travel speed (C. elegans; [9]): 0.55
- Wave initiation rate (C. elegans; [9]): 0.90
- Activity index (C. elegans; [10]): 0.85
- Asymmetry (C. elegans; [10]): 1.37
- Body wave number (C. elegans; [10]): 1.29
- Brush stroke (C. elegans; [10]): 0.89
- Curling (C. elegans; [10]): 1.50
- Stretch (C. elegans; [10]): 1.06
- Travel speed (C. elegans; [10]): 0.81
- Wave initiation rate (C. elegans; [10]): 0.84
- stability in the medium [6]: high stability
- Imax (relative MTT) (C2C12 myoblasts; Blasts): 0.63 relative MTT
- IC10 (C2C12 myoblasts; MTT, Blasts): 0.40 µM
- IC50 (C2C12 myoblasts; MTT, Blasts): 1.49 µM
- Effect: viability (hit direction) (C2C12 myoblasts; screening at 1 μM, hit selection by MAD/quartile/SSMD/robust SSMD): decreasing viability hits

Substance: SGSLSTFFRLFNRSFTQALGK [Q176]
- dose response relation, IL6 production (human muscle cells [7]): Typical curves were obtained
- Relative IL-6 ([8]; concentration 0.20 μM): 1.00
- Relative IL-6 ([8]; concentration 0.39 μM): 0.89
- Relative IL-6 ([8]; concentration 1.56 μM): 1.53
- Relative IL-6 ([8]; concentration 3.13 μM): 1.61
- Relative IL-6 ([8]; concentration 6.25 μM): 2.39
- Relative IL-6 ([8]; concentration 12.5 μM): 3.24
- Relative IL-6 ([8]; concentration 25 μM): 3.49
- Relative IL-6 ([8]; concentration 50 μM): 5.81
- Relative IL-6 ([8]; concentration 100 μM): 6.01
- Effect: inflammation (IL-6 production, hit direction) [8]: increased IL-6 production; also recorded: ↑ inflammation

Substance: KSSAYSLQMGATAIKQVKKLFKKWGW [Q125]
- dose response relation, IL6 production (human muscle cells [7]): Typical curves were obtained
- relative IL-6 production ([8]; QSM 1 μM, 24 h, relative to median of all QSM): 171%
- Relative IL-6 ([8]; concentration 0.20 μM): 0.89
- Relative IL-6 ([8]; concentration 0.39 μM): 0.90
- Relative IL-6 ([8]; concentration 1.56 μM): 1.28
- Relative IL-6 ([8]; concentration 3.13 μM): 1.96
- Relative IL-6 ([8]; concentration 6.25 μM): 2.08
- Relative IL-6 ([8]; concentration 12.5 μM): 4.89
- Relative IL-6 ([8]; concentration 25 μM): 5.55
- Relative IL-6 ([8]; concentration 50 μM): 8.23
- Relative IL-6 ([8]; concentration 100 μM): 9.80
- Effect: inflammation (IL-6 production, hit direction) [8]: increased IL-6 production; also recorded: ↑ inflammation
